Test results from PubChem BioAssay (NCI).
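Five concentrations, 48 hours, 96-well plates. GI50 is the concentration that inhibits growth by half. The concentration for full growth arrest is given as TGI.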

Columns and labels:
Experiment in all cases: NCI anticancer screen, dose series, 48 h
T-47D breast = system: T-47D breast
UACC-62 melanoma = system: UACC-62 melanoma
MALME-3M melanoma = system: MALME-3M melanoma
LOX IMVI melanoma = system: LOX IMVI melanoma
SW-620 colon = system: SW-620 colon
NCI-H226 lung = system: NCI-H226 lung
PC-3 prostate = system: PC-3 prostate
IGROV1 ovarian = system: IGROV1 ovarian
MDA-MB-435 = system: MDA-MB-435
HCT-116 colon = system: HCT-116 colon
OVCAR-5 ovarian = system: OVCAR-5 ovarian
DU-145 prostate = system: DU-145 prostate
HT29 colon = system: HT29 colon
OVCAR-3 ovarian = system: OVCAR-3 ovarian
OVCAR-4 ovarian = system: OVCAR-4 ovarian
UO-31 renal = system: UO-31 renal
NCI-H23 lung = system: NCI-H23 lung
RPMI-8226 leukemia = system: RPMI-8226 leukemia
U251 CNS = system: U251 CNS
UACC-257 melanoma = system: UACC-257 melanoma
SK-OV-3 ovarian = system: SK-OV-3 ovarian
SK-MEL-5 melanoma = system: SK-MEL-5 melanoma
SK-MEL-2 melanoma = system: SK-MEL-2 melanoma
HCC-2998 colon = system: HCC-2998 colon
OVCAR-8 ovarian = system: OVCAR-8 ovarian
SF-268 CNS = system: SF-268 CNS
SK-MEL-28 melanoma = system: SK-MEL-28 melanoma
CAKI-1 renal = system: CAKI-1 renal
BT-549 breast = system: BT-549 breast
NCI-H460 lung = system: NCI-H460 lung
TK-10 renal = system: TK-10 renal
SN12C renal = system: SN12C renal
KM12 colon = system: KM12 colon
A498 renal = system: A498 renal
A549 NSCLC = system: A549 NSCLC
COLO 205 colon = system: COLO 205 colon
HS 578T breast = system: HS 578T breast
CCRF-CEM leukemia = system: CCRF-CEM leukemia
HOP-62 NSCLC = system: HOP-62 NSCLC
RXF 393 renal = system: RXF 393 renal
NCI-H522 lung = system: NCI-H522 lung
MDA-MB-231 breast = system: MDA-MB-231 breast
ACHN renal = system: ACHN renal
NCI/ADR-RES ovarian = system: NCI/ADR-RES ovarian
EKVX NSCLC = system: EKVX NSCLC
SR leukemia = system: SR leukemia
HCT-15 colon = system: HCT-15 colon
SF-295 CNS = system: SF-295 CNS
786-0 renal = system: 786-0 renal
M14 melanoma = system: M14 melanoma
MCF7 breast = system: MCF7 breast
SNB-75 CNS = system: SNB-75 CNS
SF-539 CNS = system: SF-539 CNS
K-562 leukemia = system: K-562 leukemia
SNB-19 CNS = system: SNB-19 CNS

`O=C([O][Sn]([O]C(=O)c1ccccn1)([c]1ccccc1)[c]1ccccc1)c1ccccn1` was tested, and the GI50 (T-47D breast) was 1.56 µM, the TGI (T-47D breast) was 3.33 µM and the GI50 (UACC-62 melanoma) was 4.96 µM. For the same compound, the TGI (UACC-62 melanoma) was 17.5 µM, the GI50 (MALME-3M melanoma) was 1.61 µM and the TGI (MALME-3M melanoma) was 3.49 µM. For the same compound, the GI50 (LOX IMVI melanoma) was 1.4 µM, the TGI (LOX IMVI melanoma) was 2.7 µM and the GI50 (SW-620 colon) was 1.13 µM. For the same compound, the TGI (SW-620 colon) was 2.34 µM, the GI50 (NCI-H226 lung) was 14.7 µM and the TGI (NCI-H226 lung) was 29.6 µM. For the same compound, the GI50 (PC-3 prostate) was 11.8 µM, the TGI (PC-3 prostate) was 25.6 µM and the GI50 (IGROV1 ovarian) was 1.83 µM. The TGI (IGROV1 ovarian) was 4.03 µM, the GI50 (MDA-MB-435) was 2.29 µM and the TGI (MDA-MB-435) was 6.04 µM. The GI50 (HCT-116 colon) was 1.71 µM, the TGI (HCT-116 colon) was 3.11 µM and the GI50 (OVCAR-5 ovarian) was 16.5 µM. It also gave a TGI (OVCAR-5 ovarian) of 30.1 µM, a GI50 (DU-145 prostate) of 1.93 µM and a TGI (DU-145 prostate) of 4.19 µM. For the same compound, the GI50 (HT29 colon) was 3.06 µM, the TGI (HT29 colon) was 7.97 µM and the GI50 (OVCAR-3 ovarian) was 1.62 µM. The TGI (OVCAR-3 ovarian) was 2.98 µM, the GI50 (OVCAR-4 ovarian) was 7.53 µM and the TGI (OVCAR-4 ovarian) was 20.3 µM. It also gave a GI50 (UO-31 renal) of 2.05 µM, a TGI (UO-31 renal) of 4.66 µM and a GI50 (NCI-H23 lung) of 3.08 µM. The TGI (NCI-H23 lung) was 12.8 µM, the GI50 (RPMI-8226 leukemia) was 1.86 µM and the TGI (RPMI-8226 leukemia) was 6.13 µM. The GI50 (U251 CNS) was 1.95 µM, the TGI (U251 CNS) was 4.62 µM and the GI50 (UACC-257 melanoma) was 1.62 µM. For the same compound, the TGI (UACC-257 melanoma) was 3.61 µM, the GI50 (SK-OV-3 ovarian) was 55.5 µM and the TGI (SK-OV-3 ovarian) was over 100 µM. It also gave a GI50 (SK-MEL-5 melanoma) of 12.1 µM, a TGI (SK-MEL-5 melanoma) of 24.4 µM and a GI50 (SK-MEL-2 melanoma) of 2.57 µM. It also gave a TGI (SK-MEL-2 melanoma) of 6.26 µM, a GI50 (HCC-2998 colon) of 13.1 µM and a TGI (HCC-2998 colon) of 26 µM. The GI50 (OVCAR-8 ovarian) was 11.3 µM, the TGI (OVCAR-8 ovarian) was 24 µM and the GI50 (SF-268 CNS) was 2.76 µM. It also gave a TGI (SF-268 CNS) of 9.09 µM, a GI50 (SK-MEL-28 melanoma) of 3.4 µM and a TGI (SK-MEL-28 melanoma) of 13.3 µM. For the same compound, the GI50 (CAKI-1 renal) was 1.61 µM, the TGI (CAKI-1 renal) was 3.98 µM and the GI50 (BT-549 breast) was 8.25 µM. The TGI (BT-549 breast) was 20.7 µM, the GI50 (NCI-H460 lung) was 12.2 µM and the TGI (NCI-H460 lung) was 26.2 µM. For the same compound, the GI50 (TK-10 renal) was 2.63 µM, the TGI (TK-10 renal) was 5.2 µM and the GI50 (SN12C renal) was 13.8 µM. The TGI (SN12C renal) was 26.9 µM, the GI50 (KM12 colon) was 13.2 µM and the TGI (KM12 colon) was 25.9 µM. For the same compound, the GI50 (A498 renal) was 1.87 µM, the TGI (A498 renal) was 6.56 µM and the GI50 (A549 NSCLC) was 17.6 µM. It also gave a TGI (A549 NSCLC) of 31.5 µM, a GI50 (COLO 205 colon) of 6.28 µM and a TGI (COLO 205 colon) of 19.4 µM. The GI50 (HS 578T breast) was 2.32 µM, the TGI (HS 578T breast) was 8.88 µM and the GI50 (CCRF-CEM leukemia) was 0.565 µM. It also gave a TGI (CCRF-CEM leukemia) of 2.95 µM, a GI50 (HOP-62 NSCLC) of 16.5 µM and a TGI (HOP-62 NSCLC) of 31.5 µM. For the same compound, the GI50 (RXF 393 renal) was 2.77 µM, the TGI (RXF 393 renal) was 13 µM and the GI50 (NCI-H522 lung) was 0.14 µM. It also gave a TGI (NCI-H522 lung) of 0.291 µM, a GI50 (MDA-MB-231 breast) of 5.29 µM and a TGI (MDA-MB-231 breast) of 18.4 µM. The GI50 (ACHN renal) was 9.36 µM, the TGI (ACHN renal) was 21.2 µM and the GI50 (NCI/ADR-RES ovarian) was 11.8 µM. The TGI (NCI/ADR-RES ovarian) was 24.8 µM, the GI50 (EKVX NSCLC) was 13.7 µM and the TGI (EKVX NSCLC) was 26.9 µM. For the same compound, the GI50 (SR leukemia) was 1.22 µM, the TGI (SR leukemia) was 11.3 µM and the GI50 (HCT-15 colon) was 6.95 µM. It also gave a TGI (HCT-15 colon) of 20.4 µM, a GI50 (SF-295 CNS) of 16.1 µM and a TGI (SF-295 CNS) of 31.9 µM. For the same compound, the GI50 (786-0 renal) was 5.14 µM, the TGI (786-0 renal) was 16.8 µM and the GI50 (M14 melanoma) was 4.56 µM. The TGI (M14 melanoma) was 15.8 µM, the GI50 (MCF7 breast) was 2.67 µM and the TGI (MCF7 breast) was 13.4 µM. The GI50 (SNB-75 CNS) was 2.54 µM, the TGI (SNB-75 CNS) was 13 µM and the GI50 (SF-539 CNS) was 6.65 µM. The TGI (SF-539 CNS) was 19.7 µM, the GI50 (K-562 leukemia) was 0.405 µM and the TGI (K-562 leukemia) was 6.37 µM. The GI50 (SNB-19 CNS) was 15.5 µM and the TGI (SNB-19 CNS) was 29.1 µM.
